We go through eleven compounds from ChEMBL document CHEMBL1201862, “PubChem BioAssay data set” (2004).

The structures appear in SMILES notation.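 96-well plates; 48 h exposure; 5 concentrations. Endpoints by linear interpolation between flanking doses. Not reached: highest tested concentration assigned. GI50: concentration for 50% inhibition of growth.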 Calls of active or inactive are those of the source. Cut-off read from the data, not from the text of the source: active = GI50 up to about 1.1 µM and inactive = higher.

Among the test systems are A498; CAKI-1; HCC 2998; HCT-116; KM12; MDA-MB-231; MDA-N; MOLT-4; NCI-H23; NCI-H460; OVCAR-4; PC-3; SF-268; SF-295; SF-539; SK-MEL-5; SNB-19; SR; UACC-62; DMS-273.
Holding throughout (assay): NCI-60 cell line screen, 48 h

For the compound `CC(Nc1cc(=O)n(C)c(=O)[nH]1)c1ccccc1` (configuration not stated), the GI50 in the assay with A498, with CAKI-1, with HCC 2998, in the assay with HCT-116, in the assay with KM12 and in the assay with MDA-MB-231 was > 100 µM (inactive) in each case. The GI50 in the assay on MDA-N, with MOLT-4, in the assay with NCI-H23, in the assay with NCI-H460, in the assay on OVCAR-4 and in the assay on PC-3 was > 100 µM (inactive) each time. Besides, the GI50 with SF-268, with SF-295, in the assay on SF-539, in the assay on SK-MEL-5, with SNB-19 and with SR was > 100 µM (inactive) throughout. Further, the GI50 in the assay with UACC-62 is > 100 µM (inactive).
In the case of `Nc1ccc(Cc2ccc(/N=C\c3ccc(OCc4cccc(COc5ccc(/C=N\c6ccc(Cc7ccc(N)cc7)cc6)cc5)n4)cc3)cc2)cc1`, the GI50 with A498 is 61.5 µM (inactive); in the assay on CAKI-1, > 100 µM (inactive); in the assay with HCC 2998, > 100 µM (inactive); in the assay on HCT-116, > 100 µM (inactive); in the assay on KM12, > 100 µM (inactive); with MDA-MB-231 it was 27 µM (inactive). Moreover, the GI50 with MDA-N was > 100 µM (inactive); with MOLT-4 it was > 100 µM (inactive); in the assay on NCI-H23 it was 99.1 µM (inactive); in the assay on NCI-H460 it was > 100 µM (inactive); in the assay with OVCAR-4, 85.1 µM (inactive); in the assay with PC-3, > 100 µM (inactive). The GI50 in the assay with SF-268 was 45.2 µM (inactive); in the assay with SF-295 it was 50.1 µM (inactive); in the assay with SF-539, 4.29 µM (inactive); in the assay on SK-MEL-5, > 100 µM (inactive); with SNB-19, 41.7 µM (inactive); with SR, > 100 µM (inactive). For the same compound, in the assay on UACC-62, the GI50 was > 100 µM (inactive).
As for `CCOC(=O)c1c(N2CCCC2)[nH]c(=O)c(C(c2ccc(OC)cc2)c2c(O)c(C(=O)OCC)c(N3CCCC3)[nH]c2=O)c1O`, the GI50 with A498 was > 100 µM (inactive); in the assay on CAKI-1 it was 28.4 µM (inactive); in the assay on HCC 2998, > 100 µM (inactive); with HCT-116, > 100 µM (inactive); in the assay on KM12, > 100 µM (inactive); in the assay with MDA-MB-231 it was 20.8 µM (inactive). Moreover, the GI50 in the assay with MDA-N is > 100 µM (inactive); in the assay with MOLT-4, > 100 µM (inactive); in the assay on NCI-H23, 82 µM (inactive); in the assay with NCI-H460 it was > 100 µM (inactive); with OVCAR-4, > 100 µM (inactive); with PC-3, > 100 µM (inactive). Moreover, the GI50 in the assay on SF-268 was 49.5 µM (inactive); in the assay with SF-295, 25.7 µM (inactive); with SF-539, > 100 µM (inactive); in the assay with SK-MEL-5, > 100 µM (inactive); with SNB-19 it was > 100 µM (inactive); with SR it was 88.9 µM (inactive). For the same compound, the GI50 in the assay with UACC-62 was > 100 µM (inactive).
Consider `COc1ccc(C(=O)NC2=C(Cl)C(=O)c3ccccc3C2=O)cc1`, for which the GI50 in the assay on A498 is 14.6 µM (inactive); in the assay on CAKI-1, 2.3 µM (inactive); in the assay on HCC 2998, 4.49 µM (inactive); with HCT-116, 0.406 µM (active); with KM12, 1.07 µM (active); with MDA-MB-231, 2.36 µM (inactive). Further, the GI50 with MDA-N is 2.75 µM (inactive); with MOLT-4, 0.955 µM (active); in the assay with NCI-H23 it was 1.6 µM (inactive); in the assay with NCI-H460 it was 3.1 µM (inactive); in the assay on OVCAR-4 it was 2.17 µM (inactive); with PC-3, 1.65 µM (inactive). Also, the GI50 is 4.69 µM (inactive) in the assay with SF-268; 3.85 µM (inactive) with SF-295; 1.66 µM (inactive) in the assay on SF-539; 1.58 µM (inactive) with SK-MEL-5; 5.16 µM (inactive) in the assay with SNB-19; 1.61 µM (inactive) in the assay with SR. Further, in the assay on UACC-62, the GI50 was 0.471 µM (active).
For the compound `CCOC(=O)c1ccc(NC2Oc3cc4c(cc3C(c3cc(OC)c(OC)c(OC)c3)C2C)OCO4)cc1` (configuration not stated), the GI50 with A498 is 0.566 µM (active); with CAKI-1 it was 0.325 µM (active); in the assay with HCC 2998, 2.13 µM (inactive); with HCT-116 it was 0.465 µM (active); in the assay with KM12, 0.396 µM (active); with MDA-MB-231, 0.516 µM (active). Moreover, the GI50 with MDA-N is 0.186 µM (active); in the assay with MOLT-4, 0.41 µM (active); in the assay on NCI-H23, 0.695 µM (active); in the assay on NCI-H460, 0.445 µM (active); with OVCAR-4, 0.649 µM (active); with PC-3, 0.376 µM (active). For the same compound, the GI50 in the assay with SF-268 is 0.675 µM (active); in the assay with SF-295, 0.269 µM (active); with SF-539, 0.271 µM (active); in the assay on SK-MEL-5, 0.294 µM (active); with SNB-19, 0.617 µM (active); in the assay with SR it was 0.296 µM (active). Also, in the assay with UACC-62, the GI50 was 0.46 µM (active).
Regarding `COC(=O)c1c(C)cccc1C1CN=NC12Cc1c(C)cccc1C2=O` (configuration not stated), the GI50 with A498 is 37.8 µM (inactive); with CAKI-1, > 100 µM (inactive); in the assay on HCC 2998, 57.8 µM (inactive); with HCT-116 it was 68.7 µM (inactive); with KM12 it was 46.6 µM (inactive); in the assay with MDA-MB-231 it was 82.8 µM (inactive). Moreover, the GI50 was > 100 µM (inactive) in the assay on MDA-N; 37.4 µM (inactive) in the assay with MOLT-4; 60 µM (inactive) in the assay on NCI-H23; 97.3 µM (inactive) in the assay with NCI-H460; 35.7 µM (inactive) in the assay on OVCAR-4; 37.2 µM (inactive) in the assay with PC-3. Further, the GI50 in the assay with SF-268 was > 100 µM (inactive); in the assay with SF-295 it was 51.2 µM (inactive); in the assay on SF-539, > 100 µM (inactive); in the assay with SK-MEL-5, 53 µM (inactive); in the assay with SNB-19, > 100 µM (inactive); in the assay with SR it was > 100 µM (inactive). Besides, the GI50 in the assay with UACC-62 is 40.1 µM (inactive).
Consider `CN(N)/N=N/c1[nH]cnc1C(N)=O`, for which the GI50 was 39.1 µM (inactive) in the assay on A498; 4.24 µM (inactive) in the assay with CAKI-1; 3.3 µM (inactive) in the assay on HCC 2998; 9.12 µM (inactive) with HCT-116; 23.7 µM (inactive) with KM12; 3.22 µM (inactive) in the assay on MDA-MB-231. The GI50 in the assay on MDA-N is 13.4 µM (inactive); in the assay on MOLT-4 it was 1.23 µM (inactive); with NCI-H23 it was 50.4 µM (inactive); in the assay with NCI-H460, 13.2 µM (inactive); in the assay on OVCAR-4, 3.53 µM (inactive); in the assay with PC-3 it was 15.3 µM (inactive). Moreover, the GI50 was 5.52 µM (inactive) in the assay with SF-268; 6.14 µM (inactive) in the assay on SF-295; 13.7 µM (inactive) with SF-539; 37.7 µM (inactive) in the assay with SK-MEL-5; > 100 µM (inactive) in the assay on SNB-19; 0.352 µM (active) with SR. In the assay on UACC-62, the GI50 is 6.14 µM (inactive).
Take `CCOC(=O)C(C(=O)OCC)=c1sc(=C(C(=O)OCC)C(=O)OCC)s1`: the GI50 with CAKI-1, with DMS-273, in the assay on HCC 2998, in the assay with KM12, in the assay on MOLT-4 and in the assay on NCI-H23 was > 100 µM (inactive) in each case. The GI50 in the assay with NCI-H460, with OVCAR-4, with SF-268, with SF-295, in the assay with SK-MEL-5 and in the assay on UACC-62 was > 100 µM (inactive) throughout.
Consider `Cc1ncc([N+](=O)[O-])n1CCNC(=O)CCCn1ccnc1[N+](=O)[O-]`, for which the GI50 in the assay on A498, with CAKI-1, in the assay on HCC 2998, in the assay with HCT-116, in the assay on KM12 and in the assay on MDA-MB-231 was > 100 µM (inactive) throughout. The GI50 with MDA-N, in the assay on MOLT-4, in the assay with NCI-H23, with NCI-H460, in the assay on OVCAR-4 and in the assay with PC-3 was > 100 µM (inactive) each time. Further, the GI50 in the assay on SF-268, in the assay on SF-295, with SF-539, in the assay with SK-MEL-5, with SNB-19 and with SR was > 100 µM (inactive) in each case. For the same compound, the GI50 in the assay on UACC-62 is > 100 µM (inactive).
Turning to `c1ccc([P+](CCCCCCCC[P+](c2ccccc2)(c2ccccc2)c2ccccc2)(c2ccccc2)c2ccccc2)cc1`, the GI50 was > 31.8 µM (inactive) in the assay with A498; > 100 µM (inactive) in the assay on CAKI-1; 21.3 µM (inactive) in the assay with HCC 2998; 1.87 µM (inactive) in the assay on HCT-116; 1.52 µM (inactive) with KM12; 7.13 µM (inactive) in the assay with MDA-MB-231. Moreover, the GI50 with MDA-N is 6.89 µM (inactive); in the assay on MOLT-4 it was 10.2 µM (inactive); with NCI-H23 it was 2.16 µM (inactive); with NCI-H460 it was 3.25 µM (inactive); with OVCAR-4 it was 6.04 µM (inactive); in the assay with PC-3, 1.19 µM (inactive). The GI50 was 3.5 µM (inactive) in the assay on SF-268; 6.53 µM (inactive) in the assay on SF-295; 2.37 µM (inactive) in the assay with SF-539; 8.05 µM (inactive) with SK-MEL-5; 0.396 µM (active) with SNB-19; 23 µM (inactive) in the assay on SR. Moreover, in the assay with UACC-62, the GI50 was 24.1 µM (inactive).
For the compound `CC(C)=CCC/C(C)=C/COc1c2ccoc2cc2oc(=O)ccc12` [BERGAMOTTIN], the GI50 in the assay on A498 is 23.1 µM (inactive); in the assay with CAKI-1, 44 µM (inactive); in the assay with HCC 2998 it was 28.2 µM (inactive); in the assay on HCT-116 it was 23.8 µM (inactive); in the assay with KM12 it was 32.7 µM (inactive); in the assay with MDA-MB-231, 24.4 µM (inactive). Besides, the GI50 is 34.7 µM (inactive) with MDA-N; 15.4 µM (inactive) with MOLT-4; 27.4 µM (inactive) in the assay with NCI-H23; 29.9 µM (inactive) in the assay on NCI-H460; 41.4 µM (inactive) in the assay with OVCAR-4; 29.9 µM (inactive) in the assay with PC-3. Further, the GI50 was 54.1 µM (inactive) with SF-268; 25.4 µM (inactive) in the assay with SF-295; 37.2 µM (inactive) with SF-539; 14.9 µM (inactive) in the assay on SK-MEL-5; 32.3 µM (inactive) in the assay on SNB-19; 15.2 µM (inactive) in the assay with SR. The GI50 in the assay on UACC-62 was 10.7 µM (inactive).
